Measured values published in patent publication US7585460B2, “Method for inhibiting the biological acidification of water in contact with materials containing sulfur” (ENI S.p.A., priority 2003, dated 2009).

Columns and labels:
Assay type in all cases: cell-based, Thiobacillus
[1] = system: Thiobacilli; experiment: Acidification of water on sulfur block treated with salt powder and covered with sand (Example 9); conditions: about 150 g of salt in powder form on surface, 2 cm sand
Description: (§1) Two blocks of elemental sulfur with an upper surface of approximately 2500 cm^2 (8.5 Kg of sulfur) are positioned in two containers. The upper surface of each block of sulfur is wetted with 250 ml of a bacterial suspension of Thiobacilli containing over 10^8 bacteria per milliliter. The surface of one block is then treated with sodium chloride by spreading about 150 g of salt in powder form uniformly distributed. The two blocks are subsequently covered with a 2 cm layer of sand and wetted at regular intervals of time with rainwater until the layer of sand is saturated and the rilling of excess water is produced with respect to the saturation. Rainwater is added every month in a quantity equivalent to a fall of 100 mm.
(§2) The containers are exposed to the outside environment for three months. At the end of this period, the pH of the water in contact with the sulfur in the two containers, is measured.

[2] = system: Thiobacilli; experiment: Acidification of water on sulfur block with salt englobed in surface sulfur layer, covered with sand (Example 10); conditions: 3 mm sulfur layer containing sodium chloride (10%), 2 cm sand
Description: as §1, with “containers. The surface of one block is then covered with a fine layer (3 mm) of liquid sulfur containing sodium chloride (10%).” for “containers.”, “milliliter.” for “milliliter. The surface of one block is then treated with sodium chloride by spreading about 150 g of salt in powder form uniformly distributed.”
as §2

[3] = system: Thiobacilli (consortium); experiment: Acidification of TM medium with sulfur powder inoculated with a culture of Thiobacilli (Example 3); conditions: 33 g/l NaCl
Description: 25 ml of TM medium (regulated to pH 6 with HCl 0.1 N and sterilized in an autoclave with vapour for 20 minutes at 121° C.) were introduced into 100 ml flasks. 0.1 g (0.4%) of elemental sulfur (sulfur powder 98%-UNI sieved:0.05) were added to the TM culture medium. 2 g of small sulfur fragments taken from a sulfur deposit in Canada exposed for years to the outside environment and consequently definitely contaminated by sulfo-oxidizing bacteria, were added to the medium as a source of micro-organisms. The cultures were incubated under bland orbital stirring (100 rpm) for 25 days. During the incubation, the cultures were controlled daily for the indirect quantitative evaluation of the cellular development by registering the optical density value (at 600 nm) and to measure the lowering of the pH value.
At the end of this period, the culture broths obtained, with a cellular density higher than 10^7 cells/ml and a lowering of the pH of the medium to a value of 1.5, were filtered on common filter paper to eliminate the particles of excess sulfur and to be preserved, in 2 ml aliquots, in polypropylene phials, in a refrigerator at −70° C., as standardized inoculum.
The two consortia: that produced starting from collection strains and the one prepared starting from sulfur samples removed from actual deposits, were compared with respect to the growth curves and acidification capacity. […] It was then decided to use, for the whole following experiment, the trigger culture consisting of the wild type strains selected from the natural environment. This culture is hereafter called “consortium”.
25 ml of TM—in demineralized water—at pH 6, inoculated with 0.4% (vol/vol) of the bacterial suspension (consortium), with the addition of 0.1 g of sulfur powder, were introduced into 100 ml flasks. 33 g/l of NaCl were added to the medium to evaluate the inhibiting effect of the salt on the growth of the Thiobacilli and the acidification of the solution. Control cultures without NaCl were incubated parallelly.
The culture broths were controlled for pH and absorbance variations.

`[Cl-].[Na+]` [NaCl, Sodium Chloride] showed a pH ([1]; day 0) of 6.0, a pH ([1]; day 10) of 5.8 and a pH ([1]; day 20) of 5.7. For the same compound, the pH ([1]; day 30) was 5.7, the pH ([1]; day 40) was 5.7 and the pH ([1]; day 90) was 5.7. It also gave a pH ([2]; day 0) of 6.5, a pH ([2]; day 10) of 6.5 and a pH ([2]; day 20) of 6.5. It also gave a pH ([2]; day 30) of 6.5, a pH ([2]; day 90) of 6.5 and an Optical density ([3]; day 0) of 0.021. The pH ([3]; day 0) was 6.0, the Optical density ([3]; day 1) was 0.025 and the pH ([3]; day 1) was 6.0. It also gave an Optical density ([3]; day 3) of 0.024, a pH ([3]; day 3) of 6.0 and an Optical density ([3]; day 5) of 0.028. For the same compound, the pH ([3]; day 5) was 5.8, the Optical density ([3]; day 9) was 0.021 and the pH ([3]; day 9) was 5.8. For the same compound, the Optical density ([3]; day 12) was 0.021, the pH ([3]; day 12) was 5.8 and the Optical density ([3]; day 14) was 0.021. The pH ([3]; day 14) was 5.8, the Optical density ([3]; day 16) was 0.014 and the pH ([3]; day 16) was 5.8. It also gave an Optical density ([3]; day 19) of 0.012, a pH ([3]; day 19) of 5.8 and an Optical density ([3]; day 21) of 0.010. It also gave a pH ([3]; day 21) of 5.8, an Optical density ([3]; day 24) of 0.010 and a pH ([3]; day 24) of 5.8. The Optical density ([3]; day 26) was 0.014 and the pH ([3]; day 26) was 5.8.
